# In patent publication US4399126A, “Modulators of the complement system” (American Cyanamid Company, priority 1982, dated 1983):
# Where two headings read alike, the source gives them in different places.
# Assays:
# [1] = tested on: complement system; conditions: Br. J. Exp. Pathol. 33: 327 (1952); cited from earlier work
# [2] = tested on: hereditary angioneurotic edema; conditions: literature reports; cited from earlier work
# [3] = tested on: complement activity of sera; test: Guinea Pig Intraperitoneal Test (GPIP); type: in vivo; conditions: Cavia porcellus, ip, 200 mg/kg i.p., capillary complement assay
# Protocol: Percent inhibition is calculated by comparison with simultaneous controls.
# [4] = target: T1, activated human C1 (Homo sapiens, UniProt P09871); test: Test Code 026 (C1 inhibitor); type: biochemical; conditions: serial twofold dilution assay; higher well number indicates higher activity
# T1 sequence (P09871 16-437 limits assumed): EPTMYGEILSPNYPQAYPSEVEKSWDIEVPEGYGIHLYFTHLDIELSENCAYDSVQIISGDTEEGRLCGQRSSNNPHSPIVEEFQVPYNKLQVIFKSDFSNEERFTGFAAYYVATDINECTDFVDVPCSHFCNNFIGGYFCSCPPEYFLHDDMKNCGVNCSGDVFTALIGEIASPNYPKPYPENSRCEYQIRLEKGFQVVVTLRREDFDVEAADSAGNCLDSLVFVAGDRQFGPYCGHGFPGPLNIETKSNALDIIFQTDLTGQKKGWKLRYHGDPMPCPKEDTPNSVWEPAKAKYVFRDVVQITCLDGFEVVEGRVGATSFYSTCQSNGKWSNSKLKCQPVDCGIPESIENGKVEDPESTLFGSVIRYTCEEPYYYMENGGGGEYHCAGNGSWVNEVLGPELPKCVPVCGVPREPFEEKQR
# T1 sequence (P09871 438-688 limits assumed): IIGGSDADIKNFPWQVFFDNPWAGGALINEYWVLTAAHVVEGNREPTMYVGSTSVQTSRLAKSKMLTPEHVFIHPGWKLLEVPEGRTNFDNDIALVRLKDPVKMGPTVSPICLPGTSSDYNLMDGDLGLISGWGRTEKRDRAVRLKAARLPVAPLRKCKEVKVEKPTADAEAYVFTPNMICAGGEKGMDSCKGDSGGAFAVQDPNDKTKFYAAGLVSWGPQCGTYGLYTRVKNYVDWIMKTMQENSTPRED
# [5] = tested on: late components of human complement (C3-C9); test: Test Code 035 (C3-C9 inhibitor), lysis of EAC 142; type: biochemical; conditions: serial twofold dilution assay; higher well number indicates higher activity
# [6] = tested on: human serum; conditions: in vitro and in vivo, judged by reduction in total hemolytic complement activity; cited from earlier work
compound,measurement,setting,value
"Nc1ccc2cc(S(=O)(=O)[O-])cc(O)c2c1N=Nc1ccc(NC(=O)Nc2ccc(N=Nc3c(N)ccc4cc(S(=O)(=O)[O-])cc(O)c34)c(S(=O)(=O)[O-])c2)cc1S(=O)(=O)[O-].[Na+].[Na+].[Na+].[Na+] [chlorazol fast pink, 3,3'-ureylenebis-[6-(2-amino-8-hydroxy-6-sulfo-1-naphthylazo)benzenesulfonic acid], tetrasodium salt]",anticomplementary effect,[1],anticomplementary effect
NCCCCCC(=O)O [epsilon-aminocaproic acid],success in the treatment of hereditary angioneurotic edema,[2],used with success
"O=C(CC(=O)Nc1ccc(S[C@@H]2O[C@H](COS(=O)(=O)O)[C@@H](O[C@H]3O[C@H](COS(=O)(=O)O)[C@@H](OS(=O)(=O)O)[C@H](OS(=O)(=O)O)[C@H]3OS(=O)(=O)O)[C@H](OS(=O)(=O)O)[C@H]2OS(=O)(=O)O)cc1)Nc1ccc(S[C@@H]2O[C@H](COS(=O)(=O)O)[C@@H](O[C@H]3O[C@H](COS(=O)(=O)O)[C@@H](OS(=O)(=O)O)[C@H](OS(=O)(=O)O)[C@H]3OS(=O)(=O)O)[C@H](OS(=O)(=O)O)[C@H]2OS(=O)(=O)O)cc1.[Na].[Na].[Na].[Na].[Na].[Na].[Na].[Na].[Na].[Na].[Na].[Na].[Na].[Na] [tetradecasodium N,N'-bis[4-[2,3,6-tri-O-sulfo-4-O-(2,3,4,6-tetra-O-sulfo-α-D-glucopyranosyl)-β-D-glucopyranosylthio]phenyl]propanediamide]",inhibition at 200 mg/kg,"[3]; blood 2 hours after injection, read-out: in vivo Activity Guinea Pig % Inhibition Intraperitoneal, 2 hours",90%
same,inhibition at 200 mg/kg,"[3]; blood 6 hours after injection, read-out: in vivo Activity Guinea Pig % Inhibition Intraperitoneal, 6 hours",90%
same,inhibition at 200 mg/kg,"[3]; blood 24 hours after injection, read-out: in vivo Activity Guinea Pig % Inhibition Intraperitoneal, 24 hours",47%
same,in vitro Activity Cl 026 Wells,[4],9.9 Wells
same,in vitro Activity C-Late 035 Wells,[5],1.6 Wells
NC[C@H]1CC[C@H](C(=O)O)CC1 [tranexamic acid],success in the treatment of hereditary angioneurotic edema,[2],used with success
heparin,anticomplementary effect,[1],anticomplementary effect
pentosan-polysulfoester,anticomplementary activity on human serum,[6],anticomplementary activity
